Tested on: IL-8
Experiment: IL-8 ELISA of growth media of A2058 melanoma cells
Type: cell-based, human
Conditions: A2058 B-RAF mutant melanoma cells, 8 hours exposure; DMSO control 21024
Method: Experiments were also performed wherein A2058 B-RAF mutant melanoma cells were treated with ERK inhibitor #1 (structure set forth herein), ERK inhibitor #2 (structure set forth herein), the PD MEK inhibitor
[drawing 23] or DMSO as a negative-control, for 8 hours.
These experiments were performed using IL-8 ELISAs from R&D Systems (Minneapolis, Minn.). Approximately 1×10^6 A2058 cells were plated onto 10 cm dishes containing 10 ml of growth media. The following day, compound was added and allowed to incubate for 8 hours. The media was removed from the plates, diluted 32× and used in the ELISA.

| Compound | IL-8 levels in growth media [pg/mL] |
| --- | --- |
| Cn1cnc2c(F)c(Nc3ccc(Br)cc3Cl)c(C(=O)NOCCO)cc21 [AR] | 1632 |
| O=C(NOC[C@H](O)CO)c1ccc(F)c(F)c1Nc1ccc(F)cc1F [PD] | 2080 |

— patent publication US9229008B2, “IL-8 level as a determinant of responsivity of a cancer to treatment” (Merck Sharp & Dohme Corp., priority 2008, dated 2016)
